Laboratory results published in PubChem BioAssay (NCI).
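Briefly, cells in 96-well plates were exposed to five compound concentrations for 48 h, and endpoints were estimated by linear interpolation. At the TGI there is no net growth.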

Columns and labels:
Test in all cases: DTP human tumour cell line panel, 48 h
NCI-H23 lung = tested on: NCI-H23 lung
SW-620 colon = tested on: SW-620 colon
SR leukemia = tested on: SR leukemia
M14 melanoma = tested on: M14 melanoma
A549 NSCLC = tested on: A549 NSCLC
UACC-257 melanoma = tested on: UACC-257 melanoma
NCI-H522 lung = tested on: NCI-H522 lung
IGROV1 ovarian = tested on: IGROV1 ovarian
SK-OV-3 ovarian = tested on: SK-OV-3 ovarian
LOX IMVI melanoma = tested on: LOX IMVI melanoma
NCI-H226 lung = tested on: NCI-H226 lung
SK-MEL-2 melanoma = tested on: SK-MEL-2 melanoma
HT29 colon = tested on: HT29 colon
EKVX NSCLC = tested on: EKVX NSCLC
OVCAR-5 ovarian = tested on: OVCAR-5 ovarian
TK-10 renal = tested on: TK-10 renal
LXFL 529 NSCLC = tested on: LXFL 529 NSCLC
DMS 114 small cell lung = tested on: DMS 114 small cell lung
OVCAR-3 ovarian = tested on: OVCAR-3 ovarian
DLD-1 colon = tested on: DLD-1 colon
HOP-62 NSCLC = tested on: HOP-62 NSCLC
ACHN renal = tested on: ACHN renal
SK-MEL-28 melanoma = tested on: SK-MEL-28 melanoma
786-0 renal = tested on: 786-0 renal
OVCAR-4 ovarian = tested on: OVCAR-4 ovarian
HOP-92 NSCLC = tested on: HOP-92 NSCLC
DMS 273 small cell lung = tested on: DMS 273 small cell lung
MALME-3M melanoma = tested on: MALME-3M melanoma
CCRF-CEM leukemia = tested on: CCRF-CEM leukemia
SNB-75 CNS = tested on: SNB-75 CNS
SF-295 CNS = tested on: SF-295 CNS
KM12 colon = tested on: KM12 colon
U251 CNS = tested on: U251 CNS
UO-31 renal = tested on: UO-31 renal
KM20L2 colon = tested on: KM20L2 colon
HCC-2998 colon = tested on: HCC-2998 colon
HCT-15 colon = tested on: HCT-15 colon
SF-539 CNS = tested on: SF-539 CNS
NCI-H460 lung = tested on: NCI-H460 lung
K-562 leukemia = tested on: K-562 leukemia
SN12C renal = tested on: SN12C renal
A498 renal = tested on: A498 renal
HCT-116 colon = tested on: HCT-116 colon
M19-MEL melanoma = tested on: M19-MEL melanoma
HL-60(TB) leukemia = tested on: HL-60(TB) leukemia
MOLT-4 leukemia = tested on: MOLT-4 leukemia
SK-MEL-5 melanoma = tested on: SK-MEL-5 melanoma
CAKI-1 renal = tested on: CAKI-1 renal
SNB-19 CNS = tested on: SNB-19 CNS
SF-268 CNS = tested on: SF-268 CNS
COLO 205 colon = tested on: COLO 205 colon
OVCAR-8 ovarian = tested on: OVCAR-8 ovarian
RXF 393 renal = tested on: RXF 393 renal
RXF-631 renal = tested on: RXF-631 renal
RPMI-8226 leukemia = tested on: RPMI-8226 leukemia
UACC-62 melanoma = tested on: UACC-62 melanoma
HOP-18 NSCLC = tested on: HOP-18 NSCLC
SNB-78 CNS = tested on: SNB-78 CNS

How did the TGI (NCI-H23 lung) turn out when `CC(=O)C1=C(C)Cn2c(=O)c3ccccc3c(=O)n2C1` was run?
Its TGI is > 100 µM.

What about the TGI (SW-620 colon) of the same molecule?
The TGI was > 100 µM.

And the TGI (SR leukemia)?
The TGI was > 100 µM.

And the TGI (M14 melanoma)?
Its TGI is > 100 µM.

And the TGI (A549 NSCLC)?
Its TGI is > 100 µM.

What about the TGI (UACC-257 melanoma) of the same molecule?
Its TGI is > 100 µM.

And the TGI (NCI-H522 lung)?
The TGI was > 100 µM.

And the TGI (IGROV1 ovarian)?
The TGI was > 100 µM.

And the TGI (SK-OV-3 ovarian)?
Its TGI is > 100 µM.

And the TGI (LOX IMVI melanoma)?
Its TGI is > 100 µM.

What about the TGI (NCI-H226 lung) of the same molecule?
The TGI was > 100 µM.

And the TGI (SK-MEL-2 melanoma)?
The TGI was > 100 µM.

And the TGI (HT29 colon)?
The TGI was > 100 µM.

And the TGI (EKVX NSCLC)?
The TGI was > 100 µM.

What about the TGI (OVCAR-5 ovarian) of the same molecule?
The TGI was > 100 µM.

And the TGI (TK-10 renal)?
The TGI was > 100 µM.

And the TGI (LXFL 529 NSCLC)?
Its TGI is > 100 µM.

What about the TGI (DMS 114 small cell lung) of the same molecule?
Its TGI is > 100 µM.

And the TGI (OVCAR-3 ovarian)?
Its TGI is > 100 µM.

And the TGI (DLD-1 colon)?
Its TGI is > 100 µM.

What about the TGI (HOP-62 NSCLC) of the same molecule?
The TGI was > 100 µM.

And the TGI (ACHN renal)?
The TGI was > 100 µM.

And the TGI (SK-MEL-28 melanoma)?
The TGI was > 100 µM.

And the TGI (786-0 renal)?
The TGI was > 100 µM.

And the TGI (OVCAR-4 ovarian)?
Its TGI is > 100 µM.

What about the TGI (HOP-92 NSCLC) of the same molecule?
Its TGI is > 100 µM.

What about the TGI (DMS 273 small cell lung) of the same molecule?
The TGI was > 100 µM.

And the TGI (MALME-3M melanoma)?
The TGI was > 100 µM.

And the TGI (CCRF-CEM leukemia)?
The TGI was > 100 µM.

And the TGI (SNB-75 CNS)?
Its TGI is > 100 µM.

And the TGI (SF-295 CNS)?
Its TGI is > 100 µM.

And the TGI (KM12 colon)?
Its TGI is > 100 µM.

What about the TGI (U251 CNS) of the same molecule?
Its TGI is > 100 µM.

And the TGI (UO-31 renal)?
The TGI was > 100 µM.

What about the TGI (KM20L2 colon) of the same molecule?
Its TGI is > 100 µM.

And the TGI (HCC-2998 colon)?
Its TGI is > 100 µM.

What about the TGI (HCT-15 colon) of the same molecule?
The TGI was > 100 µM.

What about the TGI (SF-539 CNS) of the same molecule?
Its TGI is > 100 µM.

And the TGI (NCI-H460 lung)?
Its TGI is > 100 µM.

And the TGI (K-562 leukemia)?
Its TGI is > 100 µM.

And the TGI (SN12C renal)?
Its TGI is > 100 µM.

What about the TGI (A498 renal) of the same molecule?
Its TGI is > 100 µM.

What about the TGI (HCT-116 colon) of the same molecule?
Its TGI is > 100 µM.

What about the TGI (M19-MEL melanoma) of the same molecule?
The TGI was > 100 µM.

What about the TGI (HL-60(TB) leukemia) of the same molecule?
The TGI was > 100 µM.

What about the TGI (MOLT-4 leukemia) of the same molecule?
Its TGI is > 100 µM.

What about the TGI (SK-MEL-5 melanoma) of the same molecule?
Its TGI is > 100 µM.

And the TGI (CAKI-1 renal)?
The TGI was > 100 µM.

And the TGI (SNB-19 CNS)?
The TGI was > 100 µM.

And the TGI (SF-268 CNS)?
Its TGI is > 100 µM.

What about the TGI (COLO 205 colon) of the same molecule?
The TGI was > 100 µM.

What about the TGI (OVCAR-8 ovarian) of the same molecule?
The TGI was > 100 µM.

And the TGI (RXF 393 renal)?
The TGI was > 100 µM.

What about the TGI (RXF-631 renal) of the same molecule?
Its TGI is > 100 µM.

And the TGI (RPMI-8226 leukemia)?
The TGI was > 100 µM.

Which TGI (NCI-H23 lung) does the source give for `CCOC(=O)c1cc2c(nc1N)-c1ncccc1CC2` here?
Its TGI is > 100 µM.

What about the TGI (SW-620 colon) of the same molecule?
Its TGI is > 100 µM.

And the TGI (SR leukemia)?
The TGI was 57 µM.

What about the TGI (M14 melanoma) of the same molecule?
The TGI was > 100 µM.

And the TGI (A549 NSCLC)?
The TGI was > 100 µM.

And the TGI (UACC-257 melanoma)?
The TGI was > 100 µM.

What about the TGI (UACC-62 melanoma) of the same molecule?
Its TGI is > 100 µM.

And the TGI (NCI-H522 lung)?
Its TGI is > 100 µM.

What about the TGI (IGROV1 ovarian) of the same molecule?
The TGI was > 100 µM.

What about the TGI (SK-OV-3 ovarian) of the same molecule?
The TGI was > 100 µM.

And the TGI (LOX IMVI melanoma)?
The TGI was > 100 µM.

What about the TGI (NCI-H226 lung) of the same molecule?
Its TGI is > 100 µM.

What about the TGI (SK-MEL-2 melanoma) of the same molecule?
Its TGI is > 100 µM.

And the TGI (HT29 colon)?
The TGI was > 100 µM.

What about the TGI (EKVX NSCLC) of the same molecule?
Its TGI is > 100 µM.

And the TGI (OVCAR-5 ovarian)?
The TGI was > 100 µM.

And the TGI (TK-10 renal)?
The TGI was > 100 µM.

And the TGI (LXFL 529 NSCLC)?
Its TGI is > 100 µM.

And the TGI (DMS 114 small cell lung)?
Its TGI is 33 µM.

What about the TGI (HOP-18 NSCLC) of the same molecule?
The TGI was > 100 µM.

And the TGI (OVCAR-3 ovarian)?
The TGI was > 100 µM.

And the TGI (DLD-1 colon)?
Its TGI is > 100 µM.

What about the TGI (HOP-62 NSCLC) of the same molecule?
Its TGI is > 100 µM.

And the TGI (ACHN renal)?
The TGI was > 100 µM.

What about the TGI (SK-MEL-28 melanoma) of the same molecule?
Its TGI is > 100 µM.

What about the TGI (786-0 renal) of the same molecule?
Its TGI is > 100 µM.

And the TGI (OVCAR-4 ovarian)?
Its TGI is > 100 µM.

And the TGI (HOP-92 NSCLC)?
The TGI was > 100 µM.

What about the TGI (DMS 273 small cell lung) of the same molecule?
The TGI was > 100 µM.

And the TGI (MALME-3M melanoma)?
Its TGI is > 100 µM.

And the TGI (CCRF-CEM leukemia)?
The TGI was > 100 µM.

And the TGI (SNB-75 CNS)?
The TGI was > 100 µM.

What about the TGI (SF-295 CNS) of the same molecule?
The TGI was > 100 µM.

And the TGI (KM12 colon)?
The TGI was > 100 µM.

And the TGI (U251 CNS)?
The TGI was > 100 µM.

What about the TGI (UO-31 renal) of the same molecule?
Its TGI is > 100 µM.

And the TGI (SNB-78 CNS)?
The TGI was > 100 µM.

What about the TGI (KM20L2 colon) of the same molecule?
Its TGI is > 100 µM.

And the TGI (HCC-2998 colon)?
The TGI was > 100 µM.

What about the TGI (HCT-15 colon) of the same molecule?
Its TGI is > 100 µM.

And the TGI (SF-539 CNS)?
The TGI was > 100 µM.

What about the TGI (NCI-H460 lung) of the same molecule?
Its TGI is > 100 µM.

What about the TGI (K-562 leukemia) of the same molecule?
The TGI was > 100 µM.

What about the TGI (SN12C renal) of the same molecule?
The TGI was > 100 µM.

And the TGI (A498 renal)?
The TGI was > 100 µM.

What about the TGI (HCT-116 colon) of the same molecule?
Its TGI is > 100 µM.

And the TGI (M19-MEL melanoma)?
Its TGI is > 100 µM.

And the TGI (HL-60(TB) leukemia)?
Its TGI is > 100 µM.

And the TGI (MOLT-4 leukemia)?
The TGI was > 100 µM.

And the TGI (SK-MEL-5 melanoma)?
The TGI was > 100 µM.

What about the TGI (CAKI-1 renal) of the same molecule?
The TGI was > 100 µM.

What about the TGI (SNB-19 CNS) of the same molecule?
Its TGI is > 100 µM.

And the TGI (SF-268 CNS)?
The TGI was > 100 µM.

What about the TGI (COLO 205 colon) of the same molecule?
Its TGI is 69.2 µM.

What about the TGI (OVCAR-8 ovarian) of the same molecule?
The TGI was > 100 µM.

And the TGI (RXF 393 renal)?
Its TGI is > 100 µM.

What about the TGI (RXF-631 renal) of the same molecule?
The TGI was > 100 µM.

And the TGI (RPMI-8226 leukemia)?
Its TGI is 68.8 µM.
